In PubChem BioAssay AID270 (DTP/NCI, 2004) one finds T/C data, which are given here for 13 compounds.

This assay deals with BDF1 mice, s.c. Lewis lung carcinoma, T/C %. In words: NCI In Vivo Anticancer Drug Screen. Data for tumor model Lewis Lung Carcinoma (subcutaneous) in B6D2F1 (BDF1) mice. As to the method: The antitumor activity of compounds was measured in mice bearing transplantable tumors. Survival or tumor size were measured and the results are expressed as the measurement made in the treated group (T) divided by the measurement made in the vehicle treated control group (C). The tumor model used in this assay is Lewis Lung Carcinoma (subcutaneous) in B6D2F1 (BDF1) mice

Where “and” joins values, the source holds several entries; their conditions need not be identical. Identical values can stand only once. Inconclusive results are not listed. *1 amine or outer side, *2 acyl side, *3 side chain or, on linkers, in order; H or OH if unused. Where a SMILES comes first, the peptide text is derived from it. Bridges are numbered along the chain shown (N, C = ends). [ ]: non-standard residue; d: D form. The star is where a group is joined. X2 = CC(C)C(C)C(C(=O)[*:2])N(C)[*:1]; Picolinoyl(3-OH) = O=C(c1ncccc1O)*; NMePhg = CN[CH](C(=O)O)c1ccccc1; Hyp = O=C(O)[CH]1C[CH](O)CN1; Sar = CNCC(=O)O

In the case of `CC(=O)NC1=C(N2CC2)C(=O)C(NC(C)=O)=C(N2CC2)C1=O`, the T/C runs as follows: (endpoint: median survival time, dose: 0.12 mg/kg/injection, schedule: Q01DX009 (ip), vehicle: saline with Tween-80, higher = longer survival) 105 % of control and 111 % of control; (endpoint: median survival time, dose: 0.25 mg/kg/injection, schedule: Q01DX005 (ip), vehicle: saline with Tween-80, higher = longer survival) 102 % of control and 119 % of control; (endpoint: median survival time, dose: 0.25 mg/kg/injection, schedule: Q01DX009 (ip), vehicle: saline with Tween-80, higher = longer survival) 102 % of control and 112 % of control; (endpoint: median survival time, dose: 0.5 mg/kg/injection, schedule: Q01DX005 (ip), vehicle: saline with Tween-80, higher = longer survival) 98 % of control and 109 % of control; (endpoint: median survival time, dose: 0.5 mg/kg/injection, schedule: Q01DX009 (ip), vehicle: saline with Tween-80, higher = longer survival) 87 % of control and 105 % of control; (endpoint: median survival time, dose: 1.0 mg/kg/injection, schedule: Q01DX005 (ip), vehicle: saline with Tween-80, higher = longer survival) 115 % of control. For the same compound, the T/C is, setting by setting: (endpoint: median survival time, dose: 1.0 mg/kg/injection, schedule: Q01DX009 (ip), vehicle: saline with Tween-80, higher = longer survival) 123 % of control; (endpoint: median survival time, dose: 2.0 mg/kg/injection, schedule: Q01DX005 (ip), vehicle: saline with Tween-80, higher = longer survival) 94 % of control.

In the case of `Cc1nc(N)nc(N)c1-c1ccc(Cl)c(Cl)c1`, the T/C (endpoint: mean tumor weight, dose: 0.9 mg/kg/injection, schedule: Q01DX011 (ip), vehicle: carboxymethylcellulose (CMC), higher = larger tumour) is 80 % of control; the T/C (endpoint: mean tumor weight, dose: 1.3 mg/kg/injection, schedule: Q01DX011 (ip), vehicle: carboxymethylcellulose (CMC), higher = larger tumour) is 89 % of control; the T/C (endpoint: mean tumor weight, dose: 2.0 mg/kg/injection, schedule: Q01DX011 (ip), vehicle: carboxymethylcellulose (CMC), higher = larger tumour) was 92 % of control; the T/C (endpoint: mean tumor weight, dose: 2.0 mg/kg/injection, schedule: Q01DX011 (ip), vehicle: other, higher = larger tumour) is 22 % of control; the T/C (endpoint: mean tumor weight, dose: 3.0 mg/kg/injection, schedule: Q01DX011 (ip), vehicle: carboxymethylcellulose (CMC), higher = larger tumour) was 45 % of control; the T/C (endpoint: mean tumor weight, dose: 6.0 mg/kg/injection, schedule: Q01DX011 (ip), vehicle: other, higher = larger tumour) is 4 % of control. The T/C is, setting by setting: (endpoint: median survival time, dose: 0.39 mg/kg/injection, schedule: Q01DX009 (ip), vehicle: saline, higher = longer survival) 96 % of control; (endpoint: median survival time, dose: 0.78 mg/kg/injection, schedule: Q01DX009 (ip), vehicle: saline, higher = longer survival) 108 % of control; (endpoint: median survival time, dose: 1.0 mg/kg/injection, schedule: Q02DX009 (ip), vehicle: Klucel (hydroxypropylcellulose) (HPC), higher = longer survival) 105 % of control; (endpoint: median survival time, dose: 1.56 mg/kg/injection, schedule: Q01DX009 (ip), vehicle: saline, higher = longer survival) 123 % of control; (endpoint: median survival time, dose: 2.0 mg/kg/injection, schedule: Q02DX009 (ip), vehicle: Klucel (hydroxypropylcellulose) (HPC), higher = longer survival) 108 % of control; (endpoint: median survival time, dose: 3.13 mg/kg/injection, schedule: Q01DX009 (ip), vehicle: saline, higher = longer survival) 112 % of control.

Regarding `O=C1CCC(=O)N1Br`, the T/C is 99 % of control (endpoint: mean tumor weight, dose: 50.0 mg/kg/injection, schedule: Q01DX011 (ip), vehicle: other, higher = larger tumour); 59 % of control and 75 % of control (endpoint: mean tumor weight, dose: 75.0 mg/kg/injection, schedule: Q01DX011 (ip), vehicle: other, higher = larger tumour); 76 % of control (endpoint: mean tumor weight, dose: 150.0 mg/kg/injection, schedule: Q01DX011 (ip), vehicle: other, higher = larger tumour); 115 % of control (endpoint: mean tumor weight, dose: 300.0 mg/kg/injection, schedule: Q01DX011 (ip), vehicle: other, higher = larger tumour).

In the case of `CC(C)CC1NC(=O)C(NC(=O)c2ncccc2O)C(C)OC(=O)C(c2ccccc2)N(C)C(=O)C(C)NC(=O)C(C(C)C(C)C)N(C)C(=O)CN(C)C(=O)C2CC(O)CN2C1=O` (stereo unspecified) ({Picolinoyl(3-OH)}-TL[Hyp][Sar][X2]A[NMePhg]; ester 1-C; configuration not given here), the T/C runs as follows: (endpoint: mean tumor weight, dose: 5.3 mg/kg/injection, schedule: Q01DX011 (ip), vehicle: saline, higher = larger tumour) 90 % of control; (endpoint: mean tumor weight, dose: 8.0 mg/kg/injection, schedule: Q01DX011 (ip), vehicle: saline, higher = larger tumour) 86 % of control; (endpoint: mean tumor weight, dose: 12.0 mg/kg/injection, schedule: Q01DX011 (ip), vehicle: saline, higher = larger tumour) 88 % of control; (endpoint: mean tumor weight, dose: 18.0 mg/kg/injection, schedule: Q01DX011 (ip), vehicle: saline, higher = larger tumour) 122 % of control.

With `CN(C)CC(Cl)CCl` (stereo unspecified), the T/C was 117 % of control (endpoint: median survival time, dose: 50.0 mg/kg/injection, schedule: Q01DX009 (ip), vehicle: saline, higher = longer survival); 122 % of control (endpoint: median survival time, dose: 100.0 mg/kg/injection, schedule: Q01DX009 (ip), vehicle: saline, higher = longer survival); 105 % of control (endpoint: median survival time, dose: 200.0 mg/kg/injection, schedule: Q01DX009 (ip), vehicle: saline, higher = longer survival).

With `CC[n+]1ccc(Nc2ccc(/C=C/c3ccc4cc(Nc5cc[n+](CC)cc5)ccc4[n+]3CC)cc2)cc1`, the T/C by setting is: (endpoint: median survival time, dose: 2.5 mg/kg/injection, schedule: Q01DX009 (ip), vehicle: saline, higher = longer survival) 95 % of control; (endpoint: median survival time, dose: 5.0 mg/kg/injection, schedule: Q01DX009 (ip), vehicle: saline, higher = longer survival) 100 % of control; (endpoint: median survival time, dose: 10.0 mg/kg/injection, schedule: Q01DX009 (ip), vehicle: saline, higher = longer survival) 91 % of control.

On to `C[C@]12CC[C@@H]3c4ccccc4CC[C@H]3[C@@H]1CC[C@@H]2O`, for which the T/C (endpoint: mean tumor weight, dose: 43.8 mg/kg/injection, schedule: Q01DX011 (sc), vehicle: steriod suspending solution, higher = larger tumour) was 71 % of control; the T/C (endpoint: mean tumor weight, dose: 87.5 mg/kg/injection, schedule: Q01DX011 (sc), vehicle: steriod suspending solution, higher = larger tumour) is 51 % of control; the T/C (endpoint: mean tumor weight, dose: 125.0 mg/kg/injection, schedule: Q01DX011 (sc), vehicle: steriod suspending solution, higher = larger tumour) was 120 % of control; the T/C (endpoint: mean tumor weight, dose: 175.0 mg/kg/injection, schedule: Q01DX011 (sc), vehicle: steriod suspending solution, higher = larger tumour) was 56 % of control; the T/C (endpoint: mean tumor weight, dose: 250.0 mg/kg/injection, schedule: Q01DX011 (sc), vehicle: steriod suspending solution, higher = larger tumour) was 45 % of control and 69 % of control; the T/C (endpoint: mean tumor weight, dose: 350.0 mg/kg/injection, schedule: Q01DX011 (sc), vehicle: steriod suspending solution, higher = larger tumour) is 32 % of control. Further, the T/C runs as follows: (endpoint: mean tumor weight, dose: 400.0 mg/kg/injection, schedule: Q01DX011 (sc), vehicle: steriod suspending solution, higher = larger tumour) 14 % of control; (endpoint: mean tumor weight, dose: 600.0 mg/kg/injection, schedule: Q01DX011 (sc), vehicle: steriod suspending solution, higher = larger tumour) 22 % of control; (endpoint: mean tumor weight, dose: 1000.0 mg/kg/injection, schedule: Q01DX011 (sc), vehicle: steriod suspending solution, higher = larger tumour) 35 % of control and 54 % of control.

`Nc1nc(N)c2nc(CNc3ccc(C(=O)NC(CCC(=O)O)C(=O)O)cc3)cnc2n1` (stereo unspecified): the T/C was 94 % of control (endpoint: mean tumor weight, dose: 0.02 mg/kg/injection, schedule: Q01DX011 (ip), vehicle: other, higher = larger tumour); 103 % of control (endpoint: mean tumor weight, dose: 0.04 mg/kg/injection, schedule: Q01DX011 (ip), vehicle: other, higher = larger tumour); 97 % of control (endpoint: mean tumor weight, dose: 0.08 mg/kg/injection, schedule: Q01DX011 (ip), vehicle: other, higher = larger tumour); 76 % of control (endpoint: mean tumor weight, dose: 2.5 micrograms/kg/injection, schedule: Q01DX011 (ip), vehicle: saline, higher = larger tumour); 98 % of control (endpoint: mean tumor weight, dose: 5.0 micrograms/kg/injection, schedule: Q01DX011 (ip), vehicle: saline, higher = larger tumour); 100 % of control (endpoint: mean tumor weight, dose: 20.0 micrograms/kg/injection, schedule: Q01DX011 (ip), vehicle: saline, higher = larger tumour).

For `O=S(=O)(O)O.[NH-]CC1(C[NH-])CCCCC1.[Pt+2]`, the T/C (endpoint: median survival time, dose: 6.0 mg/kg/injection, schedule: Q04DX003 (ip), vehicle: other, higher = longer survival) is 100 % of control.

`Nc1cc2nc3ccccc3sc-2cc1=O`: the T/C is, setting by setting: (endpoint: median survival time, dose: 50.0 mg/kg/injection, schedule: Q01DX009 (ip), vehicle: saline with Tween-80, higher = longer survival) 104 % of control; (endpoint: median survival time, dose: 100.0 mg/kg/injection, schedule: Q01DX009 (ip), vehicle: saline with Tween-80, higher = longer survival) 90 % of control.

For `CC(=O)CC(C)(C)N`, the T/C is 118 % of control (endpoint: mean tumor weight, dose: 15.0 mg/kg/injection, schedule: Q01DX011 (ip), vehicle: saline, higher = larger tumour); 101 % of control (endpoint: mean tumor weight, dose: 33.0 mg/kg/injection, schedule: Q01DX011 (ip), vehicle: saline, higher = larger tumour); 50 % of control (endpoint: mean tumor weight, dose: 50.0 mg/kg/injection, schedule: Q01DX011 (ip), vehicle: methylcellulose (MC), higher = larger tumour); 120 % of control (endpoint: mean tumor weight, dose: 50.0 mg/kg/injection, schedule: Q01DX011 (ip), vehicle: saline, higher = larger tumour); 91 % of control (endpoint: mean tumor weight, dose: 75.0 mg/kg/injection, schedule: Q01DX011 (ip), vehicle: methylcellulose (MC), higher = larger tumour); 30 % of control (endpoint: mean tumor weight, dose: 100.0 mg/kg/injection, schedule: Q01DX011 (ip), vehicle: methylcellulose (MC), higher = larger tumour).

Consider `CCOP(=O)(CC(=O)NC(CC(=O)OC)C(=O)OC)OCC` (stereo unspecified), for which the T/C is 110 % of control (endpoint: median survival time, dose: 50.0 mg/kg/injection, schedule: Q01DX004 (ip), vehicle: saline, higher = longer survival); 120 % of control (endpoint: median survival time, dose: 100.0 mg/kg/injection, schedule: Q01DX004 (ip), vehicle: saline, higher = longer survival); 116 % of control (endpoint: median survival time, dose: 200.0 mg/kg/injection, schedule: Q01DX004 (ip), vehicle: saline, higher = longer survival); 124 % of control (endpoint: median survival time, dose: 800.0 mg/kg/injection, schedule: Q01DX004 (ip), vehicle: saline, higher = longer survival); 124 % of control (endpoint: median survival time, dose: 1600.0 mg/kg/injection, schedule: Q01DX004 (ip), vehicle: saline, higher = longer survival).

With `CC1CCC2C(C)C3C(CC4C5CC=C6CC(OC7OC(CO)C(O)C(OC8OC(CO)C(O)C(O)C8O)C7OC7OC(C)C(O)C(O)C7O)CCC6(C)C5CCC43C)N2C1` (stereo unspecified), the T/C is, setting by setting: (endpoint: mean tumor weight, dose: 54.0 mg/kg/injection, schedule: Q01DX011 (sc), vehicle: steriod suspending solution, higher = larger tumour) 112 % of control; (endpoint: mean tumor weight, dose: 80.0 mg/kg/injection, schedule: Q01DX011 (sc), vehicle: steriod suspending solution, higher = larger tumour) 69 % of control; (endpoint: mean tumor weight, dose: 120.0 mg/kg/injection, schedule: Q01DX011 (sc), vehicle: steriod suspending solution, higher = larger tumour) 76 % of control.
